The data set is described as follows: Oral bioavailability in rat. The settings on record: in vivo. The class given is ADME, organism-based.

For `Cc1cc(C)c(C(C)(C)CC(=O)OCC(CO)OCn2cnc3c(O)nc(N)nc32)c(OCc2ccccc2)c1` (stereo not drawn), the bioavailability (commonly the share of a dose that reaches the circulation, judged against a reference dose that is usually intravenous) stood at 0%. To `Nc1nc(O)c2ncn(COC(CO)CO)c2n1` [GANCICLOVIR] belongs 3.6%. As for `CC(=O)Oc1cc(C)cc(C)c1C(C)(C)CC(=O)OCC(CO)OCn1cnc2c(O)nc(N)nc21` (stereo not drawn), the figure is 15.6%.

Values taken from ChEMBL document CHEMBL1151543, “Application of the trimethyl lock1 to Ganciclovir, a pro-prodrug with increased oral bioavailability” (Bioorg Med Chem Lett, 1996).
